Assay results reported in patent US20060068118A1, “Silicon-containing treatments for solid substrates” (priority 2003, published 2006).

Experiments:
test microbes = test: Dow Corning Test Method 0923 Dynamic Shake Flask Test (ASTM E-2149-01), Table I; assay type: cell-based; conditions: shingle, vs untreated controls
Procedure: (§1) The BPB test is a standardized test known as the Bromphenol Blue Extraction Method having a Dow Corning Corporate test number 0824, except that the test was modified in the following manner. The chlorinated solvent has been eliminated and the wavelength is 595 nm. Further, the Dow Corning® Q25211 has been substituted for the Triton RTM.X100 wetting agent of the test. What is measured is the diminution of the BPB absorbance at 595 nm relative to the BPB standard solution and it is reported in percent extraction. Antimicrobial efficacy was determined using the Dow Corning Test Method 0923 Dynamic Shake Flask Test (ASTM E-2149-01) unless otherwise stated.
Application technologies were compared for a shingle substrate at constant add levels and room temperature conditions. Samples were prepared as follows and compared. The Samples included: antimicrobial agent (AA) by itself (Sample 1) and the (AA) in 0.1M Na2C2O4 (Sample 2) with a polyoxyethylene nonylphenol (the surfactant). Sample 1 treated with Methyl Siliconate is Sample 3, Sample 1 treated with sodium silicate is Sample 4 and sample 1 treated with Everwood is Sample 5. The Samples were handled as in example 1 and tested.

E. Coli = test: Dynamic Shake Flask Test, % E. Coli reduction; assay type: cell-based; conditions: Example 4, AA 1.25 mg/inch^2, vs untreated control substrates
Procedure: as §1
Studies were carried out to determine if this invention was applicable to various substrates in the building products area, such as Oriented Strand Board (OSB), vinyl siding, polymer wood composite decking and dimensional lumber. The application process was: samples were cut to 2 inches by 2 inches and weighed prior to application. A hand pump mist sprayer was used to treat the substrate. The applications of the silicate/siliconate and (AA) were kept to a minimum of less than 3 seconds application timne. Treated samples were next rinsed with copious cold water to remove any excess treatment material. There was no heating or other curing or drying of the samples.

[1] = Reaction of hydrolyzed silanes with treatment enhancers, solution appearance; assay type: physicochemical

## CCCCCCCCCCCCCCCCCC[N+](C)(C)CCC[Si](OC)(OC)OC.[Cl-] [Sample 1, N,N-dimethyl-N-Octadecyl-3-(trimethoxysilyl)propanaminium chloride]
Test microbes; AA Actives 0.50%
  % Reduction: 0%
Test microbes; AA Actives 1%
  % Reduction: 0%
E. Coli; OSB
  OSB % Red. ext. (% E. Coli Reduction): 31%
E. Coli; decking
  decking % Red. ext. (% E. Coli Reduction): 0%
E. Coli; shingle
  shingle % Red. ext. (% E. Coli Reduction): 11%
E. Coli; siding
  siding % Red. ext. (% E. Coli Reduction): 0%
E. Coli; wood
  wood % Red. ext. (% E. Coli Reduction): 21%

## CCO[Si](CC(C)C)(OCC)OCC [Sample Z-6043, i-butyltriethoxysilane]
[1]
  Appearance (at Time Min.): clear
  Appearance (at Time hours): clear

## potassium methyl siliconate [DC-777]
[1]; treatment enhancer alone, 1.5% actives level, after 4 days of standing
  appearance on standing: white precipitate
